PubChem BioAssay (NCI)
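The concentration for 50% growth inhibition is given as GI50. TGI denotes the concentration required for complete inhibition of growth.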

Legend:
Assay in all cases: growth of human tumour cells (NCI), 384-well format
RXF 393 renal = test system: RXF 393 renal
NCI-H322M lung = test system: NCI-H322M lung
ACHN renal = test system: ACHN renal
K-562 leukemia = test system: K-562 leukemia
SK-MEL-2 melanoma = test system: SK-MEL-2 melanoma
HOP-92 NSCLC = test system: HOP-92 NSCLC
MOLT-4 leukemia = test system: MOLT-4 leukemia
HL-60(TB) leukemia = test system: HL-60(TB) leukemia
SF-539 CNS = test system: SF-539 CNS
OVCAR-3 ovarian = test system: OVCAR-3 ovarian
HCT-15 colon = test system: HCT-15 colon
UACC-62 melanoma = test system: UACC-62 melanoma
OVCAR-4 ovarian = test system: OVCAR-4 ovarian
NCI-H226 lung = test system: NCI-H226 lung
SR leukemia = test system: SR leukemia
NCI-H460 NSCLC = test system: NCI-H460 NSCLC
MCF7 breast = test system: MCF7 breast
EKVX NSCLC = test system: EKVX NSCLC
IGROV1 ovarian = test system: IGROV1 ovarian
KM12 colon = test system: KM12 colon
HT29 colon = test system: HT29 colon
SN12C renal = test system: SN12C renal
DU-145 prostate = test system: DU-145 prostate
HCT-116 colon = test system: HCT-116 colon
M14 melanoma = test system: M14 melanoma
786-0 renal = test system: 786-0 renal
COLO 205 colon = test system: COLO 205 colon
SNB-75 CNS = test system: SNB-75 CNS
HS 578T breast = test system: HS 578T breast
LOX IMVI melanoma = test system: LOX IMVI melanoma
SNB-19 CNS = test system: SNB-19 CNS
OVCAR-5 ovarian = test system: OVCAR-5 ovarian
NCI-H522 lung = test system: NCI-H522 lung
MDA-MB-435 melanoma = test system: MDA-MB-435 melanoma
MDA-MB-468 breast = test system: MDA-MB-468 breast
NCI/ADR-RES ovarian = test system: NCI/ADR-RES ovarian
T-47D breast = test system: T-47D breast
PC-3 prostate = test system: PC-3 prostate
OVCAR-8 ovarian = test system: OVCAR-8 ovarian
SF-295 CNS = test system: SF-295 CNS
UO-31 renal = test system: UO-31 renal
SW-620 colon = test system: SW-620 colon
UACC-257 melanoma = test system: UACC-257 melanoma
SK-MEL-28 melanoma = test system: SK-MEL-28 melanoma
MDA-MB-231 breast = test system: MDA-MB-231 breast
HOP-62 NSCLC = test system: HOP-62 NSCLC
TK-10 renal = test system: TK-10 renal

CNC(=O)c1ccc(-c2cnc3ncc(Cc4ccc5ncccc5c4)n3n2)cc1F
GI50 (RXF 393 renal): > 43.1 µM
TGI (RXF 393 renal): > 100 µM
GI50 (NCI-H322M lung): > 100 µM
TGI (NCI-H322M lung): > 100 µM
GI50 (ACHN renal): > 100 µM
TGI (ACHN renal): > 100 µM
GI50 (K-562 leukemia): > 100 µM
TGI (K-562 leukemia): > 100 µM
GI50 (SK-MEL-2 melanoma): > 100 µM
TGI (SK-MEL-2 melanoma): > 100 µM
GI50 (HOP-92 NSCLC): > 75 µM
TGI (HOP-92 NSCLC): > 100 µM
GI50 (MOLT-4 leukemia): > 100 µM
TGI (MOLT-4 leukemia): > 100 µM
GI50 (HL-60(TB) leukemia): > 100 µM
TGI (HL-60(TB) leukemia): > 100 µM
GI50 (SF-539 CNS): > 100 µM
TGI (SF-539 CNS): > 100 µM
GI50 (OVCAR-3 ovarian): > 100 µM
TGI (OVCAR-3 ovarian): > 100 µM
GI50 (HCT-15 colon): > 100 µM
TGI (HCT-15 colon): > 100 µM
GI50 (UACC-62 melanoma): > 100 µM
TGI (UACC-62 melanoma): > 100 µM
GI50 (OVCAR-4 ovarian): > 100 µM
TGI (OVCAR-4 ovarian): > 100 µM
GI50 (NCI-H226 lung): > 100 µM
TGI (NCI-H226 lung): > 100 µM
GI50 (SR leukemia): > 50.9 µM
TGI (SR leukemia): > 100 µM
GI50 (NCI-H460 NSCLC): > 100 µM
TGI (NCI-H460 NSCLC): > 100 µM
GI50 (MCF7 breast): > 100 µM
TGI (MCF7 breast): > 100 µM
GI50 (EKVX NSCLC): > 100 µM
TGI (EKVX NSCLC): > 100 µM
GI50 (IGROV1 ovarian): > 100 µM
TGI (IGROV1 ovarian): > 100 µM
GI50 (KM12 colon): > 77.3 µM
TGI (KM12 colon): > 100 µM
GI50 (HT29 colon): > 100 µM
TGI (HT29 colon): > 100 µM
GI50 (SN12C renal): > 77.6 µM
TGI (SN12C renal): > 100 µM
GI50 (DU-145 prostate): > 100 µM
TGI (DU-145 prostate): > 100 µM
GI50 (HCT-116 colon): > 100 µM
TGI (HCT-116 colon): > 100 µM
GI50 (M14 melanoma): > 100 µM
TGI (M14 melanoma): > 100 µM
GI50 ([…]-0 renal): > 87.7 µM
TGI (786-0 renal): > 100 µM
GI50 (COLO 205 colon): > 100 µM
TGI (COLO 205 colon): > 100 µM
GI50 (SNB-75 CNS): > 61.6 µM
TGI (SNB-75 CNS): > 94.5 µM
GI50 (HS 578T breast): > 100 µM
TGI (HS 578T breast): > 100 µM
GI50 (LOX IMVI melanoma): > 100 µM
TGI (LOX IMVI melanoma): > 100 µM
GI50 (SNB-19 CNS): > 100 µM
TGI (SNB-19 CNS): > 100 µM
GI50 (OVCAR-5 ovarian): > 100 µM
TGI (OVCAR-5 ovarian): > 100 µM
GI50 (NCI-H522 lung): > 100 µM
TGI (NCI-H522 lung): > 100 µM
GI50 (MDA-MB-435 melanoma): > 100 µM
TGI (MDA-MB-435 melanoma): > 100 µM
GI50 (MDA-MB-468 breast): > 100 µM
TGI (MDA-MB-468 breast): > 100 µM
GI50 (NCI/ADR-RES ovarian): > 100 µM
TGI (NCI/ADR-RES ovarian): > 100 µM
GI50 (T-47D breast): > 100 µM
TGI (T-47D breast): > 100 µM
GI50 (PC-3 prostate): > 100 µM
TGI (PC-3 prostate): > 100 µM
GI50 (OVCAR-8 ovarian): > 100 µM
TGI (OVCAR-8 ovarian): > 100 µM
GI50 (SF-295 CNS): > 72.6 µM
TGI (SF-295 CNS): > 100 µM
GI50 (UO-31 renal): > 100 µM
TGI (UO-31 renal): > 100 µM
GI50 (SW-620 colon): > 100 µM
TGI (SW-620 colon): > 100 µM
GI50 (UACC-257 melanoma): > 100 µM
TGI (UACC-257 melanoma): > 100 µM
GI50 (SK-MEL-28 melanoma): > 100 µM
TGI (SK-MEL-28 melanoma): > 100 µM
GI50 (MDA-MB-231 breast): > 100 µM
TGI (MDA-MB-231 breast): > 100 µM
GI50 (HOP-62 NSCLC): > 100 µM
TGI (HOP-62 NSCLC): > 100 µM
GI50 (TK-10 renal): > 100 µM
TGI (TK-10 renal): > 100 µM
